In patent US10092551B2, “Spiro-thiazolones” (Hoffmann-La Roche Inc., priority 2014, dated 2018):
Where a name gives a salt, the structure may show the parent alone.

Molecular target: human V1a receptor (Homo sapiens (Human), UniProt P37288)
Experiment: human V1a receptor binding studies (3H-Vasopressin, SPA beads)
Conditions: membranes of HEK293 cells transiently transfected with human V1a receptor, Ki by Cheng-Prussoff
How it was run: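 Membranes from HEK293 cells transiently expressing cloned human V1a receptor, bound on yttrium silicate SPA beads with 4 nM 3H-vasopressin (added stock) and serially diluted compound, 1 h at room temperature. Non-specific binding defined with cold vasopressin; IC50 by non-linear regression, Ki via Cheng-Prusoff.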

Sequence of human V1a receptor (P37288 whole entry): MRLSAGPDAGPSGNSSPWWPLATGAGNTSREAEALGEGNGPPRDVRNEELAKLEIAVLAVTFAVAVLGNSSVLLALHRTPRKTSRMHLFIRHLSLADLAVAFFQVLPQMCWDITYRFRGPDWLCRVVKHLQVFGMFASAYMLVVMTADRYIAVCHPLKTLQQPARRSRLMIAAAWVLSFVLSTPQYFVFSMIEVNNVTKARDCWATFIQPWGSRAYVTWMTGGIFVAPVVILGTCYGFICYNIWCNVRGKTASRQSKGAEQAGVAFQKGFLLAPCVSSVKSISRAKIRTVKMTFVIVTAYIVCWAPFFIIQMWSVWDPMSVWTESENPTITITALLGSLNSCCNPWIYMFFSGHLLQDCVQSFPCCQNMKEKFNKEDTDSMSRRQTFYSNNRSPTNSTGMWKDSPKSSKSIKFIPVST

Row | SMILES | pKi hV1a
1 | O=C1N=C(N2CCC3(CC2)OCc2ccccc23)SC1=C1CCCC1 [Example 53, 5-cyclopentylidene-2-(1′H,3H-spiro[2-benzofuran-1,4′-piperidin]-1′-yl)-1,3-thiazol-4(5H)-one] | 8.3
2 | C/C(=C1\SC(N2CCC3(CC2)OCc2ccccc23)=NC1=O)c1ccc(Cl)cc1 [Example 27, (5E)-5-[1-(4-chlorophenyl)ethylidene]-2-(1′H,3H-spiro[2-benzofuran-1,4′-piperidin]-1′-yl)-1,3-thiazol-4(5H)-one] | 8.3
3 | CC(C)(C)[Si](C)(C)OC/C(=C1\SC(N2CCC3(CC2)OCc2ccccc23)=NC1=O)c1ccc(Cl)nc1 [Example 131, (5Z)-5-[2-{[tert-butyl(dimethyl)silyl]oxy}-1-(6-chloropyridin-3-yl)ethylidene]-2-(1′H,3H-spiro[2-benzofuran-1,4′-piperidin]-1′-yl)-1,3-thiazol-4(5H)-one] | 7.8
4 | COC/C(C)=C1\SC(N2CCC3(CC2)OCc2ccccc23)=NC1=O [Example 50, (5E/Z)-5-(1-methoxypropan-2-ylidene)-2-(1′H,3H-spiro[2-benzofuran-1,4′-piperidin]-1′-yl)-1,3-thiazol-4(5H)-one] | 8.4
5 | O=C1N=C(N2CCC3(CC2)OCc2ccccc23)SC1=C1c2ccccc2CCc2ccccc21 [Example 98, 5-(10,11-dihydro-5H-dibenzo[a,d][7]annulen-5-ylidene)-2-(1′H,3H-spiro[2-benzofuran-1,4′-piperidin]-1′-yl)-1,3-thiazol-4(5H)-one] | 8.6
6 | O=C1N=C(N2CCC3(CC2)OCc2ccccc23)SC1=C1c2ccccc2Sc2ccccc21 [Example 102, 2-(1′H,3H-spiro[2-benzofuran-1,4′-piperidin]-1′-yl)-5-(9H-thioxanthen-9-ylidene)-1,3-thiazol-4(5H)-one] | 8.6
7 | O=C1N=C(N2CCC3(CC2)OCc2ccccc23)S/C1=C1/CCCc2ccccc21 [Example 45, (5Z)-5-(3,4-dihydronaphthalen-1(2H)-ylidene)-2-(1′H,3H-spiro[2-benzofuran-1,4′-piperidin]-1′-yl)-1,3-thiazol-4(5H)-one] | 8.7
8 | O=C1N=C(N2CCC3(CC2)OCc2ccccc23)S/C1=C1/C(=O)Nc2ccccc21 [Example 74, (3E/Z)-3-[4-oxo-2-(1′H,3H-spiro[2-benzofuran-1,4′-piperidin]-1′-yl)-1,3-thiazol-5(4H)-ylidene]-1,3-dihydro-2H-indol-2-one] | 7.5
9 | CC/C(=C1/SC(N2CCC3(CC2)OCc2ccccc23)=NC1=O)c1ccncc1 [Example 31, (5Z)-5-[1-(pyridin-4-yl)propylidene]-2-(1′H,3H-spiro[2-benzofuran-1,4′-piperidin]-1′-yl)-1,3-thiazol-4(5H)-one] | 8.4
10 | C/C(=C1\SC(N2CCC3(CC2)OCc2ccccc23)=NC1=O)c1ccncc1 [Example 36, (5E)-5-[1-(pyridin-4-yl)ethylidene]-2-(1′H,3H-spiro[2-benzofuran-1,4′-piperidin]-1′-yl)-1,3-thiazol-4(5H)-one] | 7.5
11 | O=C1N=C(N2CCC3(CC2)OCc2ccccc23)S/C1=C(\c1ccc(Cl)cc1)C1CC1 [Example 22, (5E/Z)-5-[(4-chlorophenyl)(cyclopropyl)methylidene]-2-(1′H,3H-spiro[2-benzofuran-1,4′-piperidin]-1′-yl)-1,3-thiazol-4(5H)-one] | 7.8
12 | O=C1N=C(N2CCC3(CC2)OCc2ccccc23)S/C1=C\c1cccnc1 [Example 94, 5-(pyridin-3-ylmethylidene)-2-(1′H,3H-spiro[2-benzofuran-1,4′-piperidin]-1′-yl)-1,3-thiazol-4(5H)-one] | 7.1
13 | C/C(=C1/SC(N2CCC3(CC2)OCc2ccccc23)=NC1=O)c1cccnc1 [Example 39, (5Z)-5-[1-(pyridin-3-yl)ethylidene]-2-(1′H,3H-spiro[2-benzofuran-1,4′-piperidin]-1′-yl)-1,3-thiazol-4(5H)-one] | 8.9
14 | O=C1N=C(N2CCC3(CC2)OCc2ccccc23)SC1=C1CCS(=O)(=O)CC1 [Example 60, 5-(1,1-dioxidotetrahydro-4H-thiopyran-4-ylidene)-2-(1′H,3H-spiro[2-benzofuran-1,4′-piperidin]-1′-yl)-1,3-thiazol-4(5H)-one] | 8.0
15 | CC/C(=C1/SC(N2CCC3(CC2)OCc2ccccc23)=NC1=O)c1ccc(Cl)cc1 [Example 24, (5Z)-5-[1-(4-chlorophenyl)propylidene]-2-(1′H,3H-spiro[2-benzofuran-1,4′-piperidin]-1′-yl)-1,3-thiazol-4(5H)-one] | 9.1
16 | C/C(=C1/SC(N2CCC3(CC2)OCc2ccccc23)=NC1=O)c1ccc(C)nc1 [Example 7, (5E/Z)-5-[1-(6-methylpyridin-3-yl)ethylidene]-2-(1′H,3H-spiro[2-benzofuran-1,4′-piperidin]-1′-yl)-1,3-thiazol-4(5H)-one] | 8.9
17 | O=C1N=C(N2CCC3(CC2)OCc2ccccc23)SC1=C1CCC1 [Example 75, 5-cyclobutylidene-2-(1′H,3H-spiro[2-benzofuran-1,4′-piperidin]-1′-yl)-1,3-thiazol-4(5H)-one] | 7.6
18 | C/C(=C1/SC(N2CCC3(CC2)OCc2ccccc23)=NC1=O)c1ccc(Cl)cc1 [Example 26, (5Z)-5-[1-(4-chlorophenyl)ethylidene]-2-(1′H,3H-spiro[2-benzofuran-1,4′-piperidin]-1′-yl)-1,3-thiazol-4(5H)-one] | 9.2
19 | O=C1N=C(N2CCC3(CC2)OCc2ccccc23)S/C1=C1/COCc2ccccc21 [Example 87, (5E/Z)-5-(1H-isochromen-4(3H)-ylidene)-2-(1′H,3H-spiro[2-benzofuran-1,4′-piperidin]-1′-yl)-1,3-thiazol-4(5H)-one] | 8.9
20 | C/C(=C1/SC(N2CCC3(CC2)OCc2ccccc23)=NC1=O)c1ncc[nH]1 [Example 107, (5Z)-5-[1-(1H-imidazol-2-yl)ethylidene]-2-(1′H,3H-spiro[2-benzofuran-1,4′-piperidin]-1′-yl)-1,3-thiazol-4(5H)-one] | 6.8

More lines, now with the values ahead:

Row | pKi hV1a | SMILES
21 | 7.0 | COCC(COC)=C1SC(N2CCC3(CC2)OCc2ncccc23)=NC1=O [Example 163, 5-(1,3-dimethoxypropan-2-ylidene)-2-(1′H,7H-spiro[furo[3,4-b]pyridine-5,4′-piperidin]-1′-yl)-1,3-thiazol-4(5H)-one]
22 | 8.9 | O=C1N=C(N2CCC3(CC2)OCc2ccccc23)SC1=C(C1CC1)C1CC1 [Example 115, 5-(dicyclopropylmethylidene)-2-(1′H,3H-spiro[2-benzofuran-1,4′-piperidin]-1′-yl)-1,3-thiazol-4(5H)-one]
23 | 8.9 | [2H]C([2H])([2H])/C(=C1\SC(N2CCC3(CC2)OCc2ccccc23)=NC1=O)c1ccc(Cl)nc1 [Example 172]
24 | 7.2 | O=C1N=C(N2CCC3(CC2)OCc2ccccc23)SC1=C(C1CCCCC1)C1CCCCC1 [Example 125, 5-(dicyclohexylmethylidene)-2-(1′H,3H-spiro[2-benzofuran-1,4′-piperidin]-1′-yl)-1,3-thiazol-4(5H)-one]
25 | 8.8 | [2H]C([2H])([2H])/C(=C1/SC(N2CCC3(CC2)OCc2ccccc23)=NC1=O)c1ccccc1 [Example 173, (5Z)-5-[1-phenyl(^2H3)ethylidene]-2-(1′H,3H-spiro[2-benzofuran-1,4′-piperidin]-1′-yl)-1,3-thiazol-4(5H)-one]
26 | 8.0 | CC/C(=C1\SC(N2CCC3(CC2)OCc2ccccc23)=NC1=O)c1ccc(Cl)nc1 [Example 134, (5E)-5-[1-(6-chloropyridin-3-yl)propylidene]-2-(1′H,3H-spiro[2-benzofuran-1,4′-piperidin]-1′-yl)-1,3-thiazol-4(5H)-one]
27 | 6.6 | C/C(=C1/SC(N2CCC3(CC2)OCc2ccccc23)=NC1=O)c1nc[nH]c1C [Example 109, (5E/Z)-5-[1-(5-methyl-1H-1-imidazol-4-yl)ethylidene]-2-(1′H,3H-spiro[2-benzofuran-1,4′-piperidin]-1′-yl)-1,3-thiazol-4(5H)-one]
28 | 7.6 | O=C1N=C(N2CCC3(CC2)OCc2ccccc23)S/C1=C1\C=CCC1 [Example 128, (5Z)-5-(cyclopent-2-en-1-ylidene)-2-(1′H,3H-spiro[2-benzofuran-1,4′-piperidin]-1′-yl)-1,3-thiazol-4(5H)-one]
29 | 8.8 | [2H]C([2H])([2H])/C(=C1/SC(N2CCC3(CC2)OCc2ccccc23)=NC1=O)c1ccc(C)nc1 [Example 169, (5Z)-5-[1-(6-methylpyridin-3-yl)(^2H3)ethylidene]-2-(1′H,3H-spiro[2-benzofuran-1,4′-piperidin]-1′-yl)-1,3-thiazol-4(5H)-one]
30 | 8.6 | C/C(=C1/SC(N2CCC3(CC2)OCc2ccccc23)=NC1=O)c1sc(C)nc1C [Example 112, (5E/Z)-5-[1-(2,4-dimethyl-1,3-thiazol-5-yl)ethylidene]-2-(1′H,3H-spiro[2-benzofuran-1,4′-piperidin]-1′-yl)-1,3-thiazol-4(5H)-one]
31 | 7.8 | O=C1N=C(N2CCC3(CC2)OCc2ccccc23)SC1=C1Cc2ccccc2C1 [Example 161, 5-(1,3-dihydro-2H-inden-2-ylidene)-2-(1′H,3H-spiro[2-benzofuran-1,4′-piperidin]-1′-yl)-1,3-thiazol-4(5H)-one]
32 | 9.0 | C/C(=C1\SC(N2CCC3(CC2)OCc2ccccc23)=NC1=O)c1ccccc1 [Example 152, (5E)-5-(1-phenylethylidene)-2-(1′H,3H-spiro[2-benzofuran-1,4′-piperidin]-1′-yl)-1,3-thiazol-4(5H)-one]

Same assay, conditions: membranes of HEK293 cells transiently transfected with human V1a receptor, Ki by Cheng-Prussoff, read-out: pKi hV1a (converted)

Row | Ki [µM] | SMILES
33 | 0.126 | O=C1N=C(N2CCC3(CC2)OCc2ccccc23)SC1=C1CCCNCC1 (racemic) [Example 81, (5E/Z)-5-(azepan-4-ylidene)-2-(1′H,3H-spiro[2-benzofuran-1,4′-piperidin]-1′-yl)-1,3-thiazol-4(5H)-one hydrochloride]
